Laboratory results as given in patent publication US8003659B2, “Macrocyclic serine protease inhibitors” (Indenix Pharmaceuticals, Inc., priority 2008, dated 2011).
Like-named read-outs stand apart in the source and are kept apart here.

Assays:
[1] = rcm bond, 14-membered ring, DCE
HCV NS3-NS4A protease = biological target: T1, HCV NS3-NS4A protease (Hepatitis C virus genotype 1b, UniProt P26663); assay: HCV Protease Assay (SensoLyte 620 HCV Protease Assay kit); format: biochemical; settings: 1.2 nM HCV NS3-NS4A protease, 60 min at room temperature, 5% DMSO
T1 construct: made in house
T1 sequence (P26663 1027-1208): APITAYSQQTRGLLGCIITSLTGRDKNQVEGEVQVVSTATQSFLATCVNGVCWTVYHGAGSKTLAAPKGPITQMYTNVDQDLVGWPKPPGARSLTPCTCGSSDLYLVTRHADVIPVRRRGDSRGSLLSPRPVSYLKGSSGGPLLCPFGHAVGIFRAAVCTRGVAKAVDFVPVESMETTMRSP
In short: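 Protease at 1.2 nM, run with the SensoLyte 620 fluorogenic kit under supplier conditions, with compounds at several concentrations in buffer with 5% final DMSO. Reactions ran 60 min at room temperature before fluorescence reading; IC50 from four-parameter sigmoidal fit of percent inhibition.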

[2] = system: Huh-7 cells containing HCV Con1 subgenomic replicon (GS4.1 cells); assay: HCV Replicon Assay (NS4A ELISA); format: cell-based; settings: NS4A protein by ELISA
In short: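 GS4.1 cells (Huh-7 with HCV Con1 subgenomic replicon) given ten 2-fold compound dilutions (top 75 μM) or a single 15 μM dose in 0.5% DMSO for 72 h at 37 °C. NS4A measured by cell ELISA (A492); EC50 from four-parameter sigmoidal fit, single-dose results as % inhibition at 15 μM.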

GS4.1 cells = assay: Cytotoxicity evaluation (Cell Titer 96 AQueous One Solution Cell Proliferation Assay); format: cell-based; settings: cellular viability
Protocol: (§1) For cytotoxicity evaluation, GS4.1 cells were treated with compounds as described above and cellular viability was monitored using the Cell Titer 96 AQueous One Solution Cell Proliferation Assay (Promega). CC50 values were determined from the % cytotoxicity versus concentration data with Tecan Magellan software as described above.

[3] = as above; format: cell-based; settings: human; GS4.1 cells, cellular viability
Protocol: as §1

genotype 1b replicon = assay: Antiviral activity in a genotype 1b replicon assay; format: cell-based, HCV; settings: Hepatitis C virus; genotype 1b replicon assay as described in Example 32; read-out: EC50
Protocol: General procedure: Huh-7 cells containing HCV Con1 subgenomic replicon (GS4.1 cells) were grown in Dulbecco's Modified Eagle Medium (DMEM) supplemented with 10% fetal bovine serum (FBS), 2 mM L-glutamine, 110 mg/L sodium pyruvate, 1× non-essential amino acids, 100 U/mL penicillin-streptomycin, and 0.5 mg/mL G418 (Invitrogen). For dose-response testing, the cells were seeded in 96-well plates at 7.5×10^3 cells/well in a volume of 50 μL, and incubated at 37° C./5% CO2. Three hours after plating, 50 μL of ten 2-fold serial dilutions of compounds (highest concentration, 75 μM) were added, and cell cultures were incubated at 37° C./5% CO2 in the presence of 0.5% DMSO. Alternatively, compounds were tested at a single concentration of 15 μM. In all cases, Huh-7 cells lacking the HCV replicon served as negative control. The cells were incubated in the presence of compounds for 72 hr after which they were monitored for expression of the NS4A protein by enzyme-linked immunosorbent assay (ELISA). For this, the plates were then fixed for 1 min with acetone/methanol (1:1, v/v), washed twice with phosphate-buffered saline (PBS), 0.1% Tween 20, blocked for 1 hr at room temperature with TNE buffer containing 10% FBS and then incubated for 2 hr at 37° C. with the anti-NS4A mouse monoclonal antibody A-236 (ViroGen) diluted in the same buffer. After washing three times with PBS, 0.1% Tween 20, the cells were incubated 1 hr at 37° C. with anti-mouse immunoglobulin G-peroxidase conjugate in TNE, 10% FBS. After washing as described above, the reaction was developed with O-phenylenediamine (Zymed). The reaction was stopped after 30 min with 2 NH2SO4, and absorbance was read at 492 nm using Sunrise Tecan spectrophotometer. EC50 values were determined from the % inhibition versus concentration data using a sigmoidal non-linear regression analysis based on four parameters with Tecan Magellan software. When screening at a single concentration, the results were expressed as % inhibition at 15 μM.
(§2) Compounds were tested in a genotype 1b replicon assay as described in Example 32 and the results are summarized in Table 6, wherein A represents a value smaller than 1 μM, and B represents a value between 1 μM to 10 μM, C represents a value between 10 μM to 75 μM and D represents a value greater than 75 μM.

[4] = Cytotoxicity (CC50) in the genotype 1b replicon assay; format: cell-based; settings: human, GS4.1 cells; genotype 1b replicon assay as described in Example 32
Protocol: as §1, §2

[5] = system: HCV genotype 2a infectious virus; assay: HCV genotype 2a infectious virus assay; format: cell-based, HCV (strain JFH-1; genotype 2a); settings: Hepatitis C virus
Protocol: Compounds were tested in a HCV genotype 2a infectious virus assay and the results are summarized in Table 7, wherein A represents a value smaller than 1 μM, and B represents a value between 1 μM to 10 μM, C represents a value between 10 μM to 75 μM and D represents a value greater than 75 μM.
The HCV in vitro infection core ELISA assay measures the ability of a test compound to inhibit replication of an infectious HCV (strain JFH-1; genotype 2a) in cell culture. […] We have developed this model for determining the efficacy of antiviral compounds against an infectious virus in vitro using HCV producing cells (HPC), a proprietary Huh-7-derived cell sublineage capable of propagating the JFH-1 HCV virus. The readout of the assay is quantification of HCV core protein by ELISA 5 days post infection with JFH-1 virus and treatment with a test compound.
Ninety-six-well Corning Costar plates were seeded with HPC cells at a density of 3.0×10^3 cells per well in 50 μL of Huh-7 media. Compound stock solutions were made up freshly in Huh-7 media (DMEM (containing glucose, L-glutamine and sodium pyruvate), 10% FBS, 100 IU/mL penicillin, 100 μg/mL streptomycin, 2 mM GlutaMAX, 1% MEM non-essential amino acids) as 2× stock. Seven additional 3-fold drug dilutions were prepared from the 2× stocks in Huh-7 media. At least 4 hours after HPC cells were seeded, the media in the 96-well culture plates was aspirated and 50 μL of each drug dilution and 50 μL of JFH-1 HCV was added to each well.
At 16 hrs post treatment and infection, the virus inoculum was removed by aspiration. The cultures were treated at the same final concentrations of drug diluted to 1× in Huh-7 media to a final volume of 200 μL. Cells were incubated in the presence of drug for 4 additional days at 37° C./5% CO2.
Media was removed from the plates by aspiration. Cells were fixed with 250 μL 1:1 acetone:methanol for 90 seconds, washed once in PBS and then three times with 1×KPL wash solution. The assay plates were then blocked with 150 μL/well 10% FBS-TNE (50 mM Tris-HCl (pH 7.5; Sigma), 100 mM NaCl, 1 mM EDTA with 10% FBS) for 1 hr at room temperature. Cells were washed three times with 1×KPL wash solution and incubated with 100 μL/well anti-hepatitis C core mAb (1 mg/mL stock diluted 1:500 in 10% FBS-TNE) for 2 hours at 37° C. Cells were washed three times with 1×KPL wash solution and incubated with 100 μL/well HRP-goat anti-mouse antibody (diluted 1:2,500 in 10% FBS-TNE) for 1 hr at 37° C.
OPD solution was prepared using 1 OPD tablet+12 mL citrate/phosphate buffer (16 mM citric acid, 27 mM Na2HPO4) plus 5 μL 30% H2O2 per plate. Cells were washed three times with 1×KPL wash solution and developed with 100 μL/well OPD solution for 30 minutes in the dark at room temperature. The reaction was stopped with 100 μL/well of 2NH2SO4, and absorbance measured at A490 nm in a Victor^3 V 1420 multilabel counter (Perkin Elmer). The EC50 values for each compound were calculated from dose response curves from the resulting best-fit equations determined by Microsoft Excel and XLfit 4.1 software. The negative control for inhibition of virus replication was untreated HPC cells infected with the JFH-1 HCV virus strain. The negative ELISA control was untreated, uninfected HPC cells. The positive ELISA control was untreated HPC cells infected the JFH-1 HCV virus strain.

[6] = Hepatitis C virus, Huh-7, 72 hr

Row | Structure (SMILES) | IC50 (HCV NS3-NS4A protease) | EC50 ([2]; 72 hr) | CC50 (GS4.1 cells) | further results
1 | CCOC(=O)[C@@]12C[C@@H]1C=CCCCCN(C)C(=O)[C@@H]1C[C@@H](O[Si](C)(C)C(C)(C)C)CN1C(=O)N2 |  |  |  | ring closure, isolated yield ([1]; from C=CCCCCN(C)C(=O)[C@@H]1C[C@@H](O[Si](C)(C)C(C)(C)C)CN1C(=O)N[C@]1(C(=O)OCC)C[C@@H]1C=C, Hoveyda-Grubbs II (6%), 1.9 mM, 3.0 h): 51%
2 | COc1ccc2c(O[C@@H]3C[C@H]4C(=O)N(C)CCCCCC/C=C\[C@@H]5C[C@@]5(C(=O)NS(=O)(=O)C5(C)CC5)NC(=O)N4C3)cc(-c3nc(C(C)C)cs3)nc2c1C [Compound 76b] | < 1000 nM | 1000 to 10000 nM | > 75000 nM | 
3 | COc1ccc2c(O[C@@H]3C[C@H]4C(=O)N(C)CCCCC/C=C\[C@@H]5C[C@@]5(C(=O)NS(=O)(=O)C5(C)CC5)NC(=O)N4C3)cc(-c3nc(C(C)C)cs3)nc2c1C [Compound 76a, (Z)-(4R,6S,16S,18R)-[2,15-dioxo-18-[7-methoxy-8-methyl-2-(4-isopropylthiazol-2-yl)quinolin-4-yloxy]-14-N-methyl-1,3,14-triazatricyclo[14.3.0.0]nonadec-7-en-4-yl]carbonyl(1-methyl-cyclopropyl)sulfonamide] | 1000 to 10000 nM | 1000 to 10000 nM | > 75000 nM | 
4 | COc1ccc2c(O[C@H]3C[C@H]4C(=O)N(C)CCCC/C=C\[C@@H]5C[C@@]5(C(=O)NS(=O)(=O)C5(C)CC5)NC(=O)N4C3)cc(-c3csc(C#N)n3)nc2c1Cl [Compound T2, (Z)-(4R,6S,15S,17S)-[17-[8-chloro-7-methoxy-2-(2-cyanothiazol-4-yl)quinolin-4-yloxy]-13-N-methyl-2,14-dioxo-1,3,13-triazatricyclo-[13.3.0.0]octadec-7-en-4-yl]carbonyl-(1-methylcyclopropyl)sulfonamide] | < 1000 nM | < 1000 nM | > 75000 nM | 
5 | COc1ccc2c(O[C@H]3C[C@H]4C(=O)N(C)CCCC/C=C\[C@@H]5C[C@@]5(C(=O)NS(=O)(=O)C5CC5)NC(=O)N4C3)cc(-c3csc(C#N)n3)nc2c1Cl [Compound T1, (Z)-(4R,6S,15S,17S)-[17-[8-chloro-7-methoxy-2-(2-cyanothiazol-4-yl)quinolin-4-yloxy]-13-N-methyl-2,14-dioxo-1,3,13-triazatricyclo-[13.3.0.0]octadec-7-en-4-yl]carbonyl-(cyclopropyl)sulfonamide] | < 1000 nM | < 1000 nM | 10000 to 75000 nM | 
6 | COc1ccc2c(O[C@H]3C[C@H]4C(=O)N(C)CCCCC=C[C@@H]5C[C@@]5(C(=O)NS(=O)(=O)C5CC5)NC(=O)N4C3)cc(-n3ccc(C(F)(F)F)n3)nc2c1Cl |  |  |  | ring closure, isolated yield ([1]; from C=CCCCCN(C)C(=O)[C@@H]1C[C@H](Oc2cc(-n3ccc(C(F)(F)F)n3)nc3c(Cl)c(OC)ccc23)CN1C(=O)N[C@]1(C(=O)NS(=O)(=O)C2CC2)C[C@H]1C=C, Zhan 1B, 1.0 mM, 60.0 °C, 18.0 h): 40%
7 | COc1ccc2c(O[C@H]3C[C@H]4C(=O)N(C)CCCC/C=C\[C@@H]5C[C@@]5(C(=O)NS(=O)(=O)C5(C)CC5)NC(=O)N4C3)cc(-c3nc(C(F)(F)F)cs3)nc2c1C [Compound 68b, (Z)-(4R,6S,15S,17S)-[17-[7-methoxy-8-methyl-2-(4-trifluoromethythiazol-2-yl)quinolin-4-yloxy]-13-N-methyl-2,14-dioxo-1,3,13-triazatricyclo[13.3.0.0]octadec-7-en-4-yl]carbonyl(1-methylcyclopropyl)sulfonamide] | < 1000 nM |  |  | ring closure, isolated yield ([1]; from C=CCCCCN(C)C(=O)[C@@H]1C[C@H](Oc2cc(-c3nc(C(F)(F)F)cs3)nc3c(C)c(OC)ccc23)CN1C(=O)N[C@]1(C(=O)NS(=O)(=O)C2(C)CC2)C[C@H]1C=C, Zhan 1B (8%), 4.9 mM, 75.0 °C, 4.33 h): 30%; EC50 [2, 6]: < 1000 nM; CC50 [3]: > 75000 nM; EC50 (genotype 1b replicon): < 1000 nM; CC50 [4]: 10000 to 75000 nM; EC50 [5]: < 1000 nM
8 | COc1ccc2c(O[C@H]3C[C@H]4C(=O)N(C)CCCC/C=C\[C@@H]5C[C@@]5(C(=O)NS(=O)(=O)C5CC5)NC(=O)N4C3)cc(-c3nc(C(F)(F)F)cs3)nc2c1C [Compound 69b, (Z)-(4R,6S,15S,17S)-[17-[7-methoxy-8-methyl-2-(4-trifluoromethythiazol-2-yl)quinolin-4-yloxy]-13-N-methyl-2,14-dioxo-1,3,13-triazatricyclo[13.3.0.0]octadec-7-en-4-yl]carbonyl(cyclopropyl)sulfonamide] | < 1000 nM |  |  | EC50 [2, 6]: < 1000 nM; CC50 [3]: > 75000 nM; EC50 (genotype 1b replicon): < 1000 nM; CC50 [4]: > 75000 nM; EC50 [5]: < 1000 nM
